From patent US8841285B2, “Potent immunosuppressive agents, derivatives and uses” (priority 2002, dated 2014)
pIC50: −log10 of the molar value. Read-outs that look alike come from different tables or passages of the source.

Experiments:
[1] = test system: EMCV IRES mediated initiation; test: in vitro translation in RRL, EMCV IRES cistron; assay type: biochemical, rabbit; conditions: EMCV IRES bicistronic reporter
Procedure: (§1) In vitro Translation and Transcription. pSP/(CAG)33/FF/HCV/Ren·pA51 and pKS/FF/EMC/Ren were linearized by BamHI, then purified by phenol:chloroform extraction and ethanol precipitation, and dissolved in water. pSP/(CAG)33/FF/HCV/Ren·A51 and pKS/FF/EMC/Ren were individually transcribed using a large scale RNA production system in the presence of m7Gppp cap analog followed by incubation with DNase as described by the manufacturer. Resulting RNA was purified using a kit as described by the manufacturer. Translation was performed using a rabbit reticulocyte lysate system as per instructions. Briefly, 200 ng of purified RNA was combined in a 20 μl reaction containing 10 μl RRL, 0.2 μl each of minus Met and minus Leu amino acid mixtures, 70 mM KCl, 2 mM DTT, 1× translation buffer, and 10 units of RNasin. Compounds or DMSO were added to a final DMSO concentration of 2%. Reactions were incubated at 30° C. for 1.5 h, then 5 μl of the reaction mixture was assayed for luciferase activity as per instructions of luciferas reporter assay system.

skin graft = conditions: cited from earlier work
MCF-7 cells = test: cell proliferation assay, MCF-7 cells; assay type: cell-based; conditions: MCF-7 cells (FIG. 13)
Procedure: (§2) Cell Proliferation Assay. 1×10^5 of indicated cells in each well of a 96-well plate were treated with indicated compounds for 24 h followed by addition of 0.11 μCi of [^3H]-thymidine (6.7 Ci/mmol) per well for 6 h, followed by harvesting to GF/C filtermats using a cell harvester. Filtermats were air-dried and scintillation counted. IC50s were determined from quadruplicate data readings and curve-fitting analysis.

[2] = test system: HCV IRES-mediated translation; test: in vitro translation in RRL, HCV IRES cistron; assay type: biochemical, rabbit; conditions: 100 nM
Procedure: as §1

293T cells = test: cellular polyribosome profiles; assay type: cell-based; conditions: 30 min treatment
Procedure: Cellular polyribosome profiles. 293T cells were treated as indicated for 30 min. Cells were washed twice with ice-cold PBS and pipetted for 5 min in 500 μl of chilled TMK100 buffer (20 mM Tris-HCl pH 7.4, 5 mM MgCl2 100 mM KCl, 2 mM DTT, 1% Triton X-100 and 100 U/ml RNAsin in DEPC water). After clearing at 10,000×g (10 min) at 4° C., the supernatant (S10) was layered onto 11 ml, 15-45% linear sucrose gradient containing 20 mM HEPES pH 7.4, 100 mM KCl, 5 mM MgCl2 and 2 mM DTT. Ultracentrifugation at 40,000 rpm for 1.5 h at 4° C. was performed in a suitable rotor. Fractions were collected from the top of the gradient by injection of Flurinert FC-40 from bottom of centrifuge tube. Gradient profiles were monitored at 254 nm. For immunoblotting, 7 mg of total protein were processed as described above, followed by collection of 500 μl fractions were collected from the top. 100 μl aliquots of each were boiled in SDS sample buffer, followed by SDS-PAGE and immunoblotting.

HeLa cells = test: cell proliferation assay, HeLa cells; assay type: cell-based
Procedure: Cell Culture and transient overexpression. HeLa, RKO, and 293T cells were cultured in DMEM (10% FBS), and Hela S3 and MCF-7 cells in RPMI1640 (10% FBS) in a water jacket cell culture incubator with 5% CO2. Transient transfection was performed using kit as described by the manufacturer. Ectopic overexpression of indicated proteins was performed using pSG5-myc-STRAP, pSG5-eIF4AI, and pcDNA-Flag-4B(wt)
as §2

[3] = test system: cap-dependent translation; test: in vitro translation in RRL, bicistronic reporter, cap-dependent cistron; assay type: biochemical, rabbit
Procedure: as §1

eIF4AI [4] = target: T1, eIF4AI (Homo sapiens, UniProt P60842); test: ATP-dependent RNA helicase activity of 6XHis-eIF4AI; assay type: biochemical
T1 construct: The entire ORF of human eIF4AI was ligated in-frame into the BamHI and HindIII sites of the pET-28a expression vector; 6XHis (N); made in house; host or cells: E. coli BL21(DE3)
Procedure: (§3) Recombinant proteins. The entire ORF of human eIF4AI was ligated in-frame into the BamHI and HindIII sites of the pET-28a expression vector after PCR amplification from HeLa cells. Protein was produced in BL21(DE3) E. coli cultured in LB medium by induction with 1 mM IPTG for 6 h at 37° C. Cells were lysed by sonication and protein was purified using Ni-NTA resin as described by the manufacturer. For pET(His6-eIF4B), induction conditions were for 72 h at 16° C. Purification included a 1 ml Heparin column with a linear KCl gradient (50-500 mM).
(§4) ATPase and Helicase. ATPase activity was performed as described (Korneeva et al., 2005) with minor modifications. Reactions contained 2.5% DMSO, 6XHis-eIF4AI concentration was 0.56 μM, and reaction time was 10 min at 37° C. in buffer: 20 mM Tris-HCl, pH 7.5, 0.5 mM MgCl2, 100 mM KCl, 2 mM DTT, 0.1% (v/v) Tween 20, 10% (v/v) glycerol, 1 mg/ml BSA, and reactions were supplemented with 3-5 μCi of [γ-^32P]-ATP (6000 Ci/mmol). Saturating poly(U) concentrations were 1239 μM (nucleotides/20). Released phosphate was visualized on 15% native TBE polyacrylamide gels followed by autoradiography of wet gels (30 min exposure). Film was aligned with gels and spots were excised and ^32P levels were quantified by scintillation counting. Km and Vmax were determined by curve fitting. […]

eIF4AI [5] = target: T1, eIF4AI; test: RNA-dependent ATPase activity of recombinant 6XHis-eIF4AI; assay type: biochemical; conditions: saturating poly(U) RNA
Procedure: as §3, §4

T1 sequence (P60842 whole entry): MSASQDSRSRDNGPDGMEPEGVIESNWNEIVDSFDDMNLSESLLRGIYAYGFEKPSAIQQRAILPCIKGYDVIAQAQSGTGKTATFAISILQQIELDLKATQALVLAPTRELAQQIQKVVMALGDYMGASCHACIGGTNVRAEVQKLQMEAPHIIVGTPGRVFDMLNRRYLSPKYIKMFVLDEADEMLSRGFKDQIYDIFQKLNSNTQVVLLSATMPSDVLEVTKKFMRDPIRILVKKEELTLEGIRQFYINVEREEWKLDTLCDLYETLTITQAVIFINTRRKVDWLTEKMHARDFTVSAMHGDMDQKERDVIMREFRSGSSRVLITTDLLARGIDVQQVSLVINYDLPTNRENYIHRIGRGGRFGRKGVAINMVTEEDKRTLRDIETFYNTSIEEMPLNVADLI

SMILES | pIC50 [1] | activity in skin graft rejection assay (skin graft; all doses) | toxicity (skin graft; at high doses) [%] | survival period of the skin graft (skin graft; mouse skin graft rejection) [days] | toxicity (skin graft; other dose levels) | reversibility of antiproliferative effect (MCF-7 cells) | inhibition of HCV IRES-mediated (eIF4A-independent) translation [2] | effect on polysome profile (293T cells) | reversibility of antiproliferative effect (HeLa cells; HeLa cells (FIG. 13)) | sensitivity on overexpression of STRAP (HeLa cells; HeLa cells overexpressing STRAP) | increase in IC50 on overexpression of eIF4AI (HeLa cells; HeLa cells overexpressing eIF4AI vs empty vector) [fold] | inhibition of cap-dependent translation ([3]; 100 nM, HCV IRES bicistronic reporter) | pIC50 ([3]; EMCV IRES bicistronic reporter, read-out: IC50, cap-dependent initiation) | pIC50 ([3]; HCV IRES bicistronic reporter, read-out: IC50, cap-dependent translation) | effect on helicase activity of eIF4A and 4B (eIF4AI [4]; in the presence of 6XHis-4B) | effect on ATP-dependent RNA helicase activity of eIF4AI (eIF4AI [4]; with ATP) | effect on Km ATP (eIF4AI [5]) | effect on kcat (eIF4AI [5])
CC(/C=C/C(C)=C/[C@@H]1Cc2nc(cs2)[C@@H](C)C[C@@H](N)CC(=O)O[C@@H](C)C/C(C)=C/C=C\C(=O)O1)=C\CN(C)C [Pat A (1), Pateamine A] | ~7.27 | All doses were active | 17 | 15 | no toxicity | irreversible | not inhibited | depletion of polysomes | irreversible | did not alter sensitivity | 5 | nearly completely inhibited | ~7.06 | ~7.70 | – | – | – | –
CC(/C=C/C(C)=C/[C@@H]1Cc2nc(cs2)CCCCC(=O)O[C@@H](C)C/C(C)=C/C=C\C(=O)O1)=C\CN(C)C [compound 3, desmethyl, desamino-pateamine A] | – | – | – | – | – | – | – | – | – | – | – | – | – | – | further stimulated | dramatically increased | significant decrease | marginally increased
